Patent US20250163104A1, “MACROCYCLIC IMMUNOMODULATORS” (priority 2021, published 2025)
Where a SMILES comes first, the peptide text is derived from it. Bridges are numbered along the chain shown (N, C = ends). [ ]: non-standard residue; d: D form. The star is where a group is joined. Phe(3-CF3) = N[C@@H](Cc1cccc(C(F)(F)F)c1)C(=O)O; Ala(morpholin-4-yl) = N[C@@H](CN1CCOCC1)C(=O)O; Phe(4-COOH) = N[C@@H](Cc1ccc(C(=O)O)cc1)C(=O)O; Bip = N[C@@H](Cc1ccc(-c2ccccc2)cc1)C(=O)O; Phe(4-Br) = N[C@@H](Cc1ccc(Br)cc1)C(=O)O; Phe(3-Me) = Cc1cccc(C[C@H](N)C(=O)O)c1; Val(3-OH) = CC(C)(O)[C@H](N)C(=O)O; hPhe = N[C@@H](CCc1ccccc1)C(=O)O; 4Pal = N[C@@H](Cc1ccncc1)C(=O)O; Cha = N[C@@H](CC1CCCCC1)C(=O)O; dCha = N[C@H](CC1CCCCC1)C(=O)O; Hpra = C#CCC[C@H](N)C(=O)O; Carboxymethyl = O=C(O)C*; Orn = NCCC[C@H](N)C(=O)O; Dab = NCC[C@H](N)C(=O)O; Dap = NC[C@H](N)C(=O)O

target: T1, human PD-1 / PD-L1-Ig binding on Jurkat cell line over-expressing human PD-1 (Jurkat-PD-1) (Homo sapiens, UniProt Q15116); experiment: Jurkat-PD-1 Cell Binding High-Content Screening Assay (CBA); type: cell-based; conditions: Jurkat-PD-1 cells, PE-labeled PD-L1-Ig 20 nM final; read-out: Jurkat HPD1_PDL1 IC50
T1 construct: expressed in transfected cells; host or cells: Jurkat
How it was run: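 Read-out: high-content imaging of PE-tagged PD-L1-Ig bound to Jurkat cells overexpressing human PD-1, after fixation with 4% paraformaldehyde and Hoechst 33342 nuclear staining. Ligand was used at 20 nM final for 1 hour, after a 2 h compound exposure at 37° C in serum-containing DMEM.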

T1 sequence (Q15116 25-288): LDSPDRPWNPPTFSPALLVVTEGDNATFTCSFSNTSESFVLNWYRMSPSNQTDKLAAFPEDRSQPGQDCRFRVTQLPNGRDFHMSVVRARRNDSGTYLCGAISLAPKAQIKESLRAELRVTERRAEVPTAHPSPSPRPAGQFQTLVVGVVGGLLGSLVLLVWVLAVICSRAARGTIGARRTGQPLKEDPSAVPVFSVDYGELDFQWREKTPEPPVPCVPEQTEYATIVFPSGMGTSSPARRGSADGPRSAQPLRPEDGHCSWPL

Compound	IC50
CC(C)C[C@H]1NC(=O)[C@H](CCCN)NC(=O)[C@H](Cc2ccc(C(=O)O)cc2)NC(=O)[C@H](Cc2ccc(-c3ccccc3)cc2)NC(=O)[C@H](Cc2ccc(Br)cc2)NC(=O)[C@H](Cc2cccc(C(F)(F)F)c2)NC(=O)[C@H](CC(=O)O)NC(=O)[C@H](Cc2ccc(C(=O)O)cc2)NC(=O)[C@H](CN2CCOCC2)NC(=O)CSC[C@@H](C(=O)N[C@@H](CCN)C(N)=O)NC(=O)[C@H](CCC(=O)O)NC(=O)[C@H](C(C)C)NC(=O)[C@H](CC2CCCCC2)NC(=O)[C@H](CCN)NC1=O [Example 2750] ({CH2CO}-[Ala(morpholin-4-yl)][Phe(4-COOH)]D[Phe(3-CF3)][Phe(4-Br)][Bip][Phe(4-COOH)][Orn][dL][Dab][Cha]VEC[Dab]-NH2; thioether N-14)	200 nM
Cc1cccc(C[C@@H]2NC(=O)[C@H](CC(=O)O)NC(=O)[C@H](Cc3ccc(C(=O)O)cc3)NC(=O)[C@H](CCc3ccccc3)NC(=O)CSC[C@@H](C(=O)N[C@@H](CCN)C(N)=O)NC(=O)[C@H](CO)NC(=O)[C@H](C(C)(C)O)NC(=O)[C@H](CC3CCCCC3)NC(=O)[C@H](CCN)NC(=O)[C@@H](CC(C)C)NC(=O)[C@H](CCCN)NC(=O)[C@H](Cc3ccc(OCC(=O)O)cc3)NC(=O)[C@H](Cc3ccc(-c4ccccc4)cc3)NC(=O)[C@H](Cc3ccc(OCC(=O)O)cc3)NC2=O)c1 [Compound 2081] ({CH2CO}-[hPhe][Phe(4-COOH)]D[Phe(3-Me)]Y(Carboxymethyl)[Bip]Y(Carboxymethyl)[Orn][dL][Dab][Cha][Val(3-OH)]SC[Dab]-NH2; thioether N-14)	111 nM
CC(C)C[C@H]1NC(=O)[C@H](CCCN)NC(=O)[C@H](C(C)C)NC(=O)[C@H](Cc2ccc(-c3ccccc3)cc2)NC(=O)[C@H](C(C)C)NC(=O)[C@H](Cc2c[nH]c3ccccc23)NC(=O)[C@H](CC(=O)O)NC(=O)[C@H](Cc2ccc(OCC(=O)O)cc2)NC(=O)[C@H](Cc2ccc(OCC(=O)O)cc2)NC(=O)CSC[C@@H](C(=O)N[C@@H](C)C(N)=O)NC(=O)[C@H](CCCNC(=N)N)NC(=O)[C@H](C(C)C)NC(=O)[C@H](CC2CCCCC2)NC(=O)[C@H](CCN)NC1=O [Compound 1749] ({CH2CO}-Y(Carboxymethyl)Y(Carboxymethyl)DWV[Bip]V[Orn][dL][Dab][Cha]VRCA-NH2; thioether N-14)	4.2 nM

Second part, the compound after the results:

IC50	Compound
28.6 nM	CC(C)[C@@H]1NC(=O)[C@H](Cc2c[nH]c3ccccc23)NC(=O)[C@H](CC(=O)O)NC(=O)[C@H](Cc2ccncc2)NC(=O)[C@H](CN)NC(=O)CSC[C@@H](C(=O)N[C@@H](C)C(N)=O)NC(=O)[C@H]([C@@H](C)O)NC(=O)[C@H](C(C)C)NC(=O)[C@H](CC2CCCCC2)NC(=O)[C@H](CCN)NC(=O)[C@@H](CC2CCCCC2)NC(=O)[C@H](CCCN)NC(=O)[C@H](C(C)C)NC(=O)[C@H](Cc2ccc(-c3ccccc3)cc2)NC1=O [Compound 1638] ({CH2CO}-[Dap][4Pal]DWV[Bip]V[Orn][dCha][Dab][Cha]VTCA-NH2; thioether N-14)
11.4 nM	C#CCC[C@@H]1NC(=O)[C@H](Cc2ccc(-c3ccccc3)cc2)NC(=O)[C@H](C(C)C)NC(=O)[C@H](Cc2cccc(C)c2)NC(=O)[C@H](CC(=O)O)NC(=O)[C@H](Cc2ccc(C(=O)O)cc2)NC(=O)[C@H](CN)NC(=O)CSC[C@@H](C(=O)N[C@@H](CCN)C(N)=O)NC(=O)[C@H]([C@@H](C)O)NC(=O)[C@H](C(C)C)NC(=O)[C@H](CC2CCCCC2)NC(=O)[C@H](CCN)NC(=O)[C@@H](CC(C)C)NC(=O)[C@H](CCCN)NC1=O [Compound 2023] ({CH2CO}-[Dap][Phe(4-COOH)]D[Phe(3-Me)]V[Bip][Hpra][Orn][dL][Dab][Cha]VTC[Dab]-NH2; thioether N-14)
